# Source: patent EP2402020B1, “Pharmaceutical composition comprising extracts of Bupleurum krylovianum for use in the treatment of arthritis and rheumatoid arthritis” (Industrial Technology Research Institute, priority 2010, dated 2012)
# Key:
# [1] = system: carrageenan induced hindpaw edema; experiment: Carrageenan induced hindpaw edema in a rat model (plethysmometer); format: in vivo, Long-Evan rats; settings: 3 mg/kg fed 1 hour before carrageenan (positive control)
# Method: Long-Evan rats were fed with the extract (a) in Example 5 (i) in an amount of 250mg/kg, 500 mg/kg, 1000mg/kg, respectively. The positive control was fed with 3mg/kg of indomethacin (NSAID). The negative control was fed with 10ml/kg of 2% Tween 80 as a carrier After 1 hour, the rats were injected 0.1ml of 1% carrageenan on the left hindpaw. The volume of the rat's left hindpaw was measured by plethysmometer (Stoelting) at the 0, 1.5th, and 3rd hour after injection. The inhibition was calculated by the formula :
# Inhibition (%)=(Nt-Nv)/Nv × 100
# In the formula, Nt represents the left hindpaw volume of the rat fed with the ethanol extract; Nv represents the left hindpaw of the rat fed with the carrier.
# [2] = system: TNF-α; experiment: TNF-α excretion by LPS-stimulated, PMA-activated U937 cells (ELISA); format: cell-based, human; settings: activated U937, 30 minutes preincubation, LPS stimulation 4 hours, supernatant ELISA
# Method: The cell line, U937 (human monocyte cell line), was incubated in RPMI medium containing 50 ng/ml PMA (phorbol 12-myristate 13-acetate) (Sigma) and 10% fetal bovine serum (Moor et. al., Roswell Park Memorial Institute) for 24 hours. The cell line was then moved to the RPMI medium without PMA for further 48 hours. The activated U937 was seeded into a 96-well plate in a concentration of 1.6×10^5 cell/well. The wells were added 12.5 µg/ml, 25 µg/ml, 50 µg/ml and 100 µg/ml of kaerophyllin and 1 µg/ml, 3 µg/ml, 10 µg/ml and 30 µg/ml of isokaerphyllin and 10 µl of buffer, respectively. Each well was adjusted to a final volume of 190 µl. The plate was reacted under 37°C for 30 minutes. Each well was added 10 µl of 20 µg/ml LPS to stimulate cells. After 4 hours under 37°C, the plate was centrifuged to collect the supernatants.
# The amount of TNF-α in the supernatant was measured by ELISA (R&D System®) based on the control (DMSO). Meanwhile, the cell viability was measured by MTT assay (Sigma).
# [3] = system: IL-6; experiment: IL-6 excretion by LPS-stimulated, PMA-activated U937 cells (ELISA); format: cell-based, human; settings: activated U937, 30 minutes preincubation, LPS stimulation 16-18 hours, supernatant ELISA
# Method: The cell line, U937, was cultured like Example 13. The activated U937 was /s then seeded in a 96-well plate in a concentration of 1.6×10^5 cell/well. The wells were added 6.3 µg/ml, […], 25 µg/ml and 50 µg/ml of kaerophyllin and 3.8 µg/ml, 7.5 µg/ml, 15 µg/ml and 30 µg/ml of isokaerphyllin and 10 µl of buffer, respectively. Each well was adjusted to a final volume of 190 µl. The plate was put under 37°C for 30 minutes. Each well was added 10µl of 20 µg/ml LPS to stimulate cells. After 16-18 hours under 37°C, the plate was centrifuged to collect the supernatants.
# The amount of IL-6 in the supernatant was measured by ELISA (R&D System®) based on the control (DMSO). Meanwhile, the cell viability was measured by MTT assay (Sigma).
# [4] = system: IL-6; experiment: TNBS enteritis mouse model: IL-6 in colon infusion; format: in vivo, BABL/c mice; settings: 0.6mg/kg fed + 1.75mg of TNBS into the colon; colon infusion after 48 hours; negative value = enhanced excretion
# Source text: (§1) The BABL/c mice were categorized into 4 groups. Each group had 6 […].
# [5] = system: TNF-α; experiment: TNBS enteritis mouse model: TNF-α in colon infusion; format: in vivo, BABL/c mice; settings: 0.6mg/kg fed + 1.75mg of TNBS into the colon; colon infusion after 48 hours; negative value = enhanced excretion
# Source text: as §1
compound,measurement,setting,value
COc1ccc2c(c1)c(CC(=O)O)c(C)n2C(=O)c1ccc(Cl)cc1 [indomethacin],Inhibition at 0 hour (%),[1]; left hindpaw volume at 0 hour,0%
same,Inhibition at the 1.5th hour (%),[1]; left hindpaw volume at 1.5th hour,21%
same,Inhibition at the 3rd hour (%),[1]; left hindpaw volume at 3rd hour,52%
"COc1ccc(/C=C2/C(=O)OC[C@@H]2Cc2ccc3c(c2)OCO3)cc1OC [kaerophyllin, trans-(3,4-dimethoxybenzylidene)-β-(3,4-methylenedioxylbenzyl)-γ-butyrolactone]",IC50,"[2]; Homo sapiens, U-937, read-out: IC50 value (inhibition of the excretion of TNF-α)",44 ± 5 µg/mL
same,IC50,"[3]; Homo sapiens, U-937, read-out: IC50 value (inhibition of the excretion of IL-6)",13 ± 2 µg/mL
"cis-(3,4-dimethoxybenzylidene)-β-(3,4-methylenedioxylbenzyl)-γ-butyrolactone [isokaerophyllin]",IC50 value (inhibition of the excretion of TNF-α),[2],18 ± 4 µg/mL
same,IC50 value (inhibition of the excretion of IL-6),[3],24 ± 6 µg/mL
"C[C@@H]1C[C@H]2[C@@H]3CCC4=CC(=O)C=C[C@]4(C)[C@@]3(F)[C@@H](O)C[C@]2(C)[C@@]1(O)C(=O)CO [DEX, dexamethasone]",Inhibition of IL-6 (%),[4],-55%
same,Inhibition of TNF-α(%),[5],9%
